Test results as given in US8889709B2, “Use of isoQC inhibitors in the treatment and prevention of inflammatory diseases or conditions” (Probiodrug AG, priority 2006, dated 2014).
Read-outs that look alike come from different tables or passages of the source. Peptide text beside a SMILES is read from it.

Tests used:
human isoQC [1] = biological target: T1, human isoQC (Homo sapiens, UniProt Q9NXS2, C369A/I73N); test: Inhibitor assay, human isoQC (Ki/IC50, competitive inhibition)
Procedure: (§4) All measurements were performed with a NovoStar reader for microplates (BMG Labtechnologies) at 30° C. […] Excitation/emission wavelengths were 320/410 nm.

[2] = tested on: Thioglycollate-induced peritonitis in C57/Bl6J mice; test: Thioglycollate-induced peritonitis in C57/Bl6J wild type mice; format: in vivo, mouse
Procedure: C57/Bl6J mice were purchased from Charles River Laboratories (Kisslegg, Germany). For each experiment, the mice were age- and sex-matched. An intraperitoneal injection of 25 ml/kg body weight of sterile 8% (w/v) thioglycollate (Sigma-Aldrich) was used to induce peritonitis. 30 min before the thioglycollate-stimulus, animals were injected with different doses of isoQC-inhibitor isoQC-I. For lavage of the peritoneum, the animals were anesthetized using 2% isofluran. The peritoneal exudates were collected by washing the peritoneum with 8 ml of sterile PBS 4 h after thioglycollate injection. Cells of 1 ml lavage fluid were collected by centrifugation (300 g, 10 min) and stained according to the manufacturer's instructions for BD Trucount tubes (BD Trucount tubes; catalog no. 340334; BD Biosciences, Heidelberg, Germany). Cells were blocked with CD16/32 (Caltag) at 4° C. for 15 min. and stained with 7/4-FITC (Serotec, Dusseldorf, Germany)/Ly6G-PE (Miltenyi, Bergisch Gladbach, Germany) as well as IgG1-PE (BD)/IgG2a-FITC (Miltenyi) as isotype controls at room temperature for 15 min. After staining, erythrocytes were lysed with BD FACSLyse (BD) in the dark at room temperature for 15 min. After washing with PBS, flow cytometric analysis was performed on a BD FACSCalibur (BD) based on 5000 beads per sample as reference standard.

human isoQC [3] = biological target: T1, human isoQC; test: Kinetic evaluation of peptide substrates of human isoQC; format: biochemical; parameters: The cDNA of the mature human isoQC starting with codon 30 (counting from methionine II); His6 (C-His) (C); yeast alpha-factor secretion signal (YSS) (N); made in house; host or cells: Pichia pastoris X-33; conditions: human isoQC expressed in P. pastoris (YSShisoQC)
Procedure: (§1) Excitation/emission wavelengths were 320/410 nm.
(§2) Excitation/emission wavelengths were 380/460 nm.
(§3) Kinetic data were evaluated using GraFit software.

human isoQC [4] = biological target: T2, human isoQC (Homo sapiens, UniProt Q9NXS2); test: as above; format: biochemical; parameters: The cDNA of the mature human isoQC starting with codon 30 (counting from methionine II); His6 (C-His) (C); yeast alpha-factor secretion signal (YSS) (N); made in house; host or cells: Pichia pastoris X-33; conditions: human isoQC expressed in E. coli BL21 (hisoQCdt)
Procedure: as §1, §2, §3
Target sequence in this assay (Q9NXS2 48-382): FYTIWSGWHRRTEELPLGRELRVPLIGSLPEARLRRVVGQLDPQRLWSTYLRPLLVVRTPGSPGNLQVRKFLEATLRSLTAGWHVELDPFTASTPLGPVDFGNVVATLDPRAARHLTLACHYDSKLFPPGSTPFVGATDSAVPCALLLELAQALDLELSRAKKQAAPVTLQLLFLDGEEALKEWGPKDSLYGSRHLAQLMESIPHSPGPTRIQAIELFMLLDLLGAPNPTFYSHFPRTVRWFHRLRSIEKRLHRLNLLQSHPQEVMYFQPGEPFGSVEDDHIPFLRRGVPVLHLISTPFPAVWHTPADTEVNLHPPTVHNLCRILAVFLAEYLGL

mouse-isoQC [5] = biological target: T3, mouse-isoQC (Mus musculus, UniProt Q8BH73, I74N); test: Kinetic parameters of conversion of peptide substrates by murine isoQC; format: biochemical; parameters: starting with codon 43 (Glu 43) of the open reading frame (counting from methionine II); yeast alpha-factor secretion signal (N); made in house; host or cells: Pichia pastoris X-33
Procedure: as §1, §2, §3

human isoQC [6] = biological target: T2, human isoQC; test: Inhibitor assay, human isoQC (Ki/IC50, competitive inhibition)
Procedure: as §4

human QC = human QC (Homo sapiens, UniProt Q16769); test: Inhibitor assay, human QC (Ki/IC50, competitive inhibition)
Procedure: as §4

mouse-isoQC [7] = biological target: T3, mouse-isoQC; test: Inactivation/reactivation of mouse-isoQC by chelators and metal ions; conditions: for reactivation of mouse-isoQC apoenzyme: metal added after removal of the chelator
Procedure: The final dialysis was performed for 5 h. All buffers were prepared in metal-free polystyrene containers. Subsequently, the apoenzyme was centrifuged at 20.000×g for 1 h at 4° C., and the protein concentration was determined by UV absorbance.

human isoQC [8] = test: Inhibitor assay, human isoQC (Ki/IC50, competitive inhibition); conditions: isoQC vs human QC
Procedure: as §4

human isoQC [9] = biological target: T2, human isoQC; test: Inactivation of human isoQC by heterocyclic chelators; format: biochemical
Target sequence in this assay (Q9NXS2 whole entry): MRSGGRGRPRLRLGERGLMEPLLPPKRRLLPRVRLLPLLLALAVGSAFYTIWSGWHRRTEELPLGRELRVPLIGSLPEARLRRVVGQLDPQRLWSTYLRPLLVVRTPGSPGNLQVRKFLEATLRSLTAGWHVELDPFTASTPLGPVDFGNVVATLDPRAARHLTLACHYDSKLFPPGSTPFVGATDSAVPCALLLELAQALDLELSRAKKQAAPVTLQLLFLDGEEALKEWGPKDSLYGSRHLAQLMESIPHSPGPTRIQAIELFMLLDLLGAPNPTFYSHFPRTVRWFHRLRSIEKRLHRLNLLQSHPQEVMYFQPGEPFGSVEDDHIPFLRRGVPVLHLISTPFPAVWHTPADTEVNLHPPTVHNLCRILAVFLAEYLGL

T3 sequence (Q8BH73 61-383 I74N): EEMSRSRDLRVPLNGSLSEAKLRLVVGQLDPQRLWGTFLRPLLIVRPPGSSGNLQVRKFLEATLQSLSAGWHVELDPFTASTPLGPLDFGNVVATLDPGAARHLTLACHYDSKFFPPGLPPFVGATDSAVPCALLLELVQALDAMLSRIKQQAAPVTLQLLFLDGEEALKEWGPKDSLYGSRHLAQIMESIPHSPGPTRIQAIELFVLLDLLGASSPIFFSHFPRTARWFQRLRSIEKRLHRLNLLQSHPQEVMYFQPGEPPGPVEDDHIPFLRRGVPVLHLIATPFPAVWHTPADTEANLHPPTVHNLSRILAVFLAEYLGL
T1 sequence (Q9NXS2 48-382 I73N/C369A): as the sequence (Q9NXS2 48-382) above, with I26N, C322A counted along it
human QC, sequence (Q16769 29-361): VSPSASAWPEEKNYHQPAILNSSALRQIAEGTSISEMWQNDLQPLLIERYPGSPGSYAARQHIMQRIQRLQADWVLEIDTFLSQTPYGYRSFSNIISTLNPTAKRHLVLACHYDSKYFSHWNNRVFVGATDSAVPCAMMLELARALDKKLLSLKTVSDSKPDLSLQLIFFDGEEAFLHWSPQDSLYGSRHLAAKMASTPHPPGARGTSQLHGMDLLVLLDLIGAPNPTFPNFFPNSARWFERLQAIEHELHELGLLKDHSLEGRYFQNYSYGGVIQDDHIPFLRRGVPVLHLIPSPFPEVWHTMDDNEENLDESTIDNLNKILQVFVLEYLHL

Q: What does the source list for `O=C1NC(=O)N(c2ccc3[nH]cnc3c2)C1c1ccc2c(c1)OCCO2` (centres unmarked) [Example 16, 1-(1H-benzo[d]imidazol-5-yl)-5-(2,3-dihydrobenzo[b][1,4]dioxin-7-yl)imidazolidine-2,4-dione]?
A: IC50 (human isoQC [1]): 57.6 nM; Ki (human isoQC [1]): 4.14 nM

Q: For `CCCOc1ccc(C2C(=O)NC(=O)N2c2ccc3[nH]cnc3c2)cc1` (racemic) [Example 6, 1-(1H-benzo[d]imidazol-5-yl)-5-(4-propoxyphenyl)imidazolidine-2,4-dione], which “infiltrating monocytes in the peritoneum (FACS)” value (shortened to “infiltrating monocytes”) ([2]; 6 mg/kg ip) is on record?
A: reduction

Q: What about the “infiltrating monocytes” value ([2]; 18 mg/kg ip) of the same molecule?
A: reduced the infiltration of monocytes down to baseline values

Q: And the “pGlu-MCP-1 in lavage fluid” value ([2]; FIG. 25b, different doses)?
A: reduction of pGlu-content

Q: And the “infiltrating monocytes” value ([2]; different doses ip 30 min before thioglycollate, lavage 4 h after)?
A: dose-dependent reduction

Q: For `C[C@H](NC(=O)[C@H](Cc1ccccc1)NC(=O)[C@@H](N)CCC(N)=O)C(=O)O` [QFA] (H-Gln-Phe-Ala-OH), which Km (human isoQC [3]) is on record?
A: 0.104 ± 0.025 mM

Q: What about the Km (human isoQC [4]) of the same molecule?
A: 0.11 ± 0.016 mM

Q: For `O=C1NC(=O)N(c2ccc3[nH]cnc3c2)C1c1cccc(Cl)c1` (centres unmarked) [Example 12, 1-(1H-benzo[d]imidazol-5-yl)-5-(3-chlorophenyl)imidazolidine-2,4-dione], which IC50 (human isoQC [1]) is on record?
A: 58 nM

Q: And the Ki (human isoQC [1])?
A: 10.5 nM

Q: `Cc1cc(=O)oc2cc(NC(=O)[C@@H](N)CCC(N)=O)ccc12` [Q-AMC, H-Gln-AMC] was tested. Which Km (human isoQC [3]) did it give?
A: 0.03 ± 0.0064 mM

Q: What about the “kcat (s^−1) YSShisQC” value (human isoQC [3]) of the same molecule?
A: 3.72 ± 0.44 s⁻¹

Q: And the Km (human isoQC [4])?
A: 0.01 ± 0.0009 mM

Q: What about the “kcat (s^−1) hisoQCdt” value (human isoQC [4]) of the same molecule?
A: 1.07 ± 0.03 s⁻¹

Q: And the Km (mouse-isoQC [5])?
A: 0.022 ± 0.001 mM

Q: What about the “kcat (s^−1) m-isoQC” value (mouse-isoQC [5]) of the same molecule?
A: 6.98 ± 0.35 s⁻¹

Q: Which Km (human isoQC [3]) does the source give for `NC(=O)CC[C@H](N)C(=O)Nc1ccc2ccccc2c1` [Q-βNA, H-Gln-βNA] here?
A: 0.035 ± 0.0005 mM

Q: What about the “kcat (s^−1) YSShisQC” value (human isoQC [3]) of the same molecule?
A: 8.16 ± 0.87 s⁻¹

Q: And the Km (human isoQC [4])?
A: 0.03 ± 0.002 mM

Q: What about the “kcat (s^−1) hisoQCdt” value (human isoQC [4]) of the same molecule?
A: 3.37 ± 0.12 s⁻¹

Q: What about the Km (mouse-isoQC [5]) of the same molecule?
A: 0.032 ± 0.003 mM

Q: And the “kcat (s^−1) m-isoQC” value (mouse-isoQC [5])?
A: 17.48 ± 0.97 s⁻¹

Q: What does the source list for `O=C1NC(=O)C2(Cc3ccccc3C2)N1c1ccc2[nH]cnc2c1` [Example 32, 3-(1H-benzimidazol-5-yl)-1′,3′-dihydro-2H,5H-spiro[imidazolidine-4,2′-indene]-2,5-dione]?
A: IC50 (human isoQC [1]): 166 nM; Ki (human isoQC [1]): 40.9 nM

Q: Which results are given for `Cn1ccnc1` [1-Methylimidazole]?
A: Ki (human isoQC [1]): 82000 ± 3000 nM; Ki (human isoQC [6]): 80000 ± 5000 nM; Ki (human QC): 39.7 ± 0.2 µM

Q: Which results are given for `O=C1NC(=O)N(c2ccc3[nH]cnc3c2)C1c1ccc2nsnc2c1` (centres unmarked) [Example 1, 5-(benzo[c][1,2,5]thiadiazol-6-yl)-1-(1H-benzo[d]imidazol-5-yl)imidazolidine-2,4-dione]?
A: IC50 (human isoQC [1]): 3.3 nM; Ki (human isoQC [1]): 1.62 nM

Q: With `O=C1NC(=S)C(c2ccc(F)c(F)c2F)N1c1ccc2nc[nH]c2c1` (centres unmarked) [Example 41, 1-(1H-benzo[d]imidazol-5-yl)-5-(2,3,4-trifluorophenyl)-4-thioxoimidazolidin-2-one] as the molecule, how does the IC50 (human isoQC [1]) read?
A: 163 nM

Q: What about the Ki (human isoQC [1]) of the same molecule?
A: 34.5 nM

Q: For `O=C1NC(=O)N(c2ccc3[nH]cnc3c2)C1c1ccc(F)cc1` (centres unmarked) [Example 15, 1-(1H-benzo[d]imidazol-5-yl)-5-(4-fluorophenyl)imidazolidine-2,4-dione], which IC50 (human isoQC [1]) is on record?
A: 60 nM

Q: And the Ki (human isoQC [1])?
A: 12.3 nM

Q: Which “reactivation of mouse-isoQC apoenzyme” value (mouse-isoQC [7]) does the source give for calcium here?
A: No reactivation

Q: What does the source list for `NC(=O)CC[C@H](N)C(=O)NCC(=O)O` [QG] (H-Gln-Gly-OH)?
A: Km (human isoQC [3]): 0.36 ± 0.047 mM; Km (human isoQC [4]): 0.42 ± 0.04 mM; Km (mouse-isoQC [5]): 0.16 ± 0.01 mM

Q: How did the IC50 (human isoQC [1]) turn out when `O=C1NC(=S)C(c2ccc(Cl)cc2)N1c1ccc2[nH]cnc2c1` (centres unmarked) [Example 40, 1-(1H-benzo[d]imidazol-5-yl)-5-(4-chlorophenyl)-4-thioxoimidazolidin-2-one] was run?
A: 58.3 nM

Q: What about the Ki (human isoQC [1]) of the same molecule?
A: 11.4 nM

Q: Which results are given for `O=C1NC(=O)N(c2ccc3[nH]cnc3c2)C1c1ccccc1` (centres unmarked) [Example 2, 1-(1H-benzo[d]imidazol-5-yl)-5-phenylimidazolidine-2,4-dione]?
A: IC50 (human isoQC [1]): 29.6 nM; Ki (human isoQC [1]): 16.4 nM

Q: How did the IC50 (human isoQC [1]) turn out when `O=C1NC(=O)N(c2ccc3[nH]cnc3c2)C1c1cc(C(F)(F)F)ccc1F` (centres unmarked) [Example 4, 1-(1H-benzo[d]imidazol-5-yl)-5-(2-fluoro-5-(trifluoromethyl)phenyl)imidazolidine-2,4-dione] was run?
A: 150 nM

Q: And the Ki (human isoQC [1])?
A: 25.8 nM

Q: `NC(=O)CC[C@H](N)C(=O)N[C@@H](CCC(=O)O)C(=O)O` [QE] (H-Gln-Glu-OH) was tested. Which Km (human isoQC [3]) did it give?
A: 0.61 ± 0.064 mM

Q: What about the Km (human isoQC [4]) of the same molecule?
A: 0.7 ± 0.13 mM

Q: With `COc1ccc(NC(=S)NCCCn2ccnc2)cc1OC.Cl` [1-(3-(1H-imidazol-1-yl)propyl)-3-(3,4-dimethoxyphenyl)thiourea hydrochloride] as the molecule, how does the Ki (human isoQC [6]) read?
A: 480 ± 30 nM

Q: What about the Ki (human isoQC [6]; read-out: Ki-value, inhibition of human isoQC-catalyzed conversion of H-Gln-AMC into pGlu-AMC, FIG. 1, Michaelis-Menten model, linear competitive inhibition, inhibitor 0-5 μM) of the same molecule?
A: 240 nM

Q: And the “drop in Ki, human isoQC compared with human QC” value (human isoQC [8])?
A: 10 fold

Q: For `O=C(O)CN(CCN(CC(=O)O)CC(=O)O)CC(=O)O` [EDTA], which “inactivation of human isoQC” value (human isoQC [9]) is on record?
A: inactivated

Q: Which results are given for `COc1ccc(C2C(=O)NC(=O)N2c2ccc3[nH]cnc3c2)cc1O` (centres unmarked) [Example 9, 1-(1H-benzo[d]imidazol-5-yl)-5-(3-hydroxy-4-methoxyphenyl)imidazolidine-2,4-dione]?
A: IC50 (human isoQC [1]): 30.3 nM; Ki (human isoQC [1]): 2.66 nM

Q: For `O=C(O)c1cccc(C(=O)O)n1` [dipicolinic acid], which “inactivation of human isoQC” value (human isoQC [9]) is on record?
A: inactivated

Q: Which results are given for `c1ccc2[nH]cnc2c1` [Benzimidazole]?
A: Ki (human isoQC [1]): 250000 ± 5000 nM; Ki (human isoQC [6]): 200000 ± 8000 nM; Ki (human QC; read-out: Ki (μM) hQC, competitive inhibition): 138 ± 4 µM

Q: What does the source list for `c1cnc2c(c1)ccc1cccnc12` [1,10-phenantroline]?
A: inactivation of mouse-isoQC (mouse-isoQC [7]; dialysis against buffer containing 5 mM 1,10-phenantrolin and 5 mM EDTA): inactivation; inactivation of human isoQC (human isoQC [9]): inactivated

Q: manganese was tested. Which “reactivation of mouse-isoQC apoenzyme” value (mouse-isoQC [7]) did it give?
A: No reactivation

Q: With `CC(C)C[C@H](NC(=O)[C@H](CC(=O)O)NC(=O)[C@H](CCC(=O)O)NC(=O)[C@@H](N)CCC(N)=O)C(=O)O` [QEDL] (H-QEDL-OH) as the molecule, how does the Km (human isoQC [3]) read?
A: 0.16 ± 0.01 mM

Q: What about the Km (human isoQC [4]) of the same molecule?
A: 0.63 ± 0.052 mM

Q: For `O=C1NC(=O)N(c2ccc3[nH]cnc3c2)C1c1ccccc1Cl` (centres unmarked) [Example 14, 1-(1H-benzo[d]imidazol-5-yl)-5-(2-chlorophenyl)imidazolidine-2,4-dione], which IC50 (human isoQC [1]) is on record?
A: 40 nM

Q: What about the Ki (human isoQC [1]) of the same molecule?
A: 3.07 nM

Q: `O=S(=O)([O-])[O-].[Zn+2]` [ZnSO4] was tested. Which “reactivation of mouse-isoQC apoenzyme” value (mouse-isoQC [7]) did it give?
A: complete reactivation

Q: With `NC(=O)CC[C@H](NC(=O)[C@@H](N)CCC(N)=O)C(=O)O` [QQ] (H-Gln-Gln-OH) as the molecule, how does the Km (human isoQC [3]) read?
A: 0.11 ± 0.007 mM

Q: And the Km (human isoQC [4])?
A: 0.11 ± 0.027 mM

Q: Which results are given for `O=C1NC(=O)N(c2ccc3[nH]cnc3c2)C1c1ccc(Cl)c(C(F)(F)F)c1` (centres unmarked) [Example 7, 1-(1H-benzo[d]imidazol-5-yl)-5-(4-chloro-3-(trifluoromethyl)phenyl)imidazolidine-2,4-dione]?
A: IC50 (human isoQC [1]): 1400 nM; Ki (human isoQC [1]): 35.2 nM

Q: How did the IC50 (human isoQC [1]) turn out when `O=C1NC(=O)N(c2ccc3[nH]cnc3c2)C1c1ccc(Cl)cc1` (centres unmarked) [Example 13, 1-(1H-benzo[d]imidazol-5-yl)-5-(4-chlorophenyl)imidazolidine-2,4-dione] was run?
A: 52 nM

Q: And the Ki (human isoQC [1])?
A: 6.71 nM

Q: Which IC50 (human isoQC [1]) does the source give for `O=C1NC(=O)N(c2ccc3[nH]cnc3c2)C1c1cc(F)ccc1Br` (centres unmarked) [Example 5, 1-(1H-benzo[d]imidazol-5-yl)-5-(2-bromo-5-fluorophenyl)imidazolidine-2,4-dione] here?
A: 66 nM

Q: What about the Ki (human isoQC [1]) of the same molecule?
A: 8.27 nM
